The test relates to P388 leukemia ip, CD2F1 mice, survival T/C. In words: NCI In Vivo Anticancer Drug Screen. Data for tumor model P388 Leukemia (intraperitoneal) in CD2F1 (CDF1) mice. Particulars: endpoint: median survival time, higher = longer survival. Summed up: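 Mice carrying the transplanted tumor received test compound or vehicle. Survival was recorded in each group, and the value is the treated-group measurement divided by that of the vehicle-treated control group.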

[1] abbreviates: dose: 100.0 mg/kg/injection, schedule: Q01DX009 (ip), vehicle: saline.
[2] abbreviates: dose: 200.0 mg/kg/injection, schedule: Q01DX009 (ip), vehicle: saline.
[3] abbreviates: dose: 400.0 mg/kg/injection, schedule: Q01DX009 (ip), vehicle: saline.
The mark [4] stands for this setting: dose: 50.0 mg/kg/injection, schedule: Q01DX005 (ip), vehicle: Klucel (hydroxypropylcellulose) (HPC).
The mark [5] stands for this setting: dose: 60.0 mg/kg/injection, schedule: Q01DX005 (ip), vehicle: saline with Tween-80.
[6] abbreviates: dose: 120.0 mg/kg/injection, schedule: Q01DX005 (ip), vehicle: saline with Tween-80.
Where [7] appears, read: dose: 30.0 mg/kg/injection, schedule: Q01DX005 (ip), vehicle: Klucel (hydroxypropylcellulose) (HPC).
Setting [8] is: dose: 60.0 mg/kg/injection, schedule: Q01DX005 (ip), vehicle: Klucel (hydroxypropylcellulose) (HPC).
Setting [9] is: dose: 50.0 mg/kg/injection, schedule: Q01DX005 (ip), vehicle: saline.
The mark [10] stands for this setting: dose: 100.0 mg/kg/injection, schedule: Q01DX005 (ip), vehicle: saline.
Setting [11] is: dose: 200.0 mg/kg/injection, schedule: Q01DX005 (ip), vehicle: saline.

Values joined by “and” are separate entries in the source; they are usually repeats but may differ in a detail not shown here. Equal values may be shown once. Toxic doses and inconclusive results are not listed.

The record followed here is PubChem BioAssay AID330 (DTP/NCI, 2004).

`COc1cc(CCN)ccc1O`: the T/C under setting [1] is 104 % of control and 98 % of control; the T/C under setting [2] was 100 % of control and 102 % of control; the T/C under setting [3] was 100 % of control and 107 % of control; the T/C (dose: 600.0 mg/kg/injection, schedule: Q01DX009 (ip), vehicle: saline) is 102 % of control and 114 % of control.
Take `Cc1nc(N(C)C)[nH]c(=O)c1N=Nc1ccc(Cl)cc1`: the T/C is, setting by setting: under setting [4], 105 % of control; (dose: 100.0 mg/kg/injection, schedule: Q01DX005 (ip), vehicle: Klucel (hydroxypropylcellulose) (HPC)) 114 % of control; (dose: 200.0 mg/kg/injection, schedule: Q01DX005 (ip), vehicle: Klucel (hydroxypropylcellulose) (HPC)) 105 % of control.
For the compound `NS(=O)(=O)c1ccc(NC(=O)Nc2cc(C(F)(F)F)ccc2Cl)cc1`, the T/C by setting is: under setting [5], 103 % of control; under setting [6], 96 % of control; (dose: 240.0 mg/kg/injection, schedule: Q01DX005 (ip), vehicle: saline with Tween-80) 87 % of control.
Regarding `COC1=CCC(Cc2ccc[nH]2)=CC1`, the T/C runs as follows: (dose: 100.0 mg/kg/injection, schedule: Q01DX001 (ip), vehicle: distilled water + Tween-80 + alcohol) 98 % of control; (dose: 200.0 mg/kg/injection, schedule: Q01DX001 (ip), vehicle: distilled water + Tween-80 + alcohol) 105 % of control; (dose: 400.0 mg/kg/injection, schedule: Q01DX001 (ip), vehicle: distilled water + Tween-80 + alcohol) 107 % of control.
As to `COC1OC(CO)C(O)C(NC(=O)N(C)N=O)C1O` (stereo unspecified), the T/C under setting [1] is 169 % of control and 187 % of control; the T/C under setting [2] is 218 % of control and 232 % of control; the T/C under setting [3] was 105 % of control and 117 % of control.
Consider `CS(=O)(=O)Oc1ccc[nH]c1=O`, for which the T/C runs as follows: (dose: 6.25 mg/kg/injection, schedule: Q01DX009 (ip), vehicle: saline) 110 % of control; (dose: 12.5 mg/kg/injection, schedule: Q01DX009 (ip), vehicle: Klucel (hydroxypropylcellulose) (HPC)) 93 % of control; (dose: 12.5 mg/kg/injection, schedule: Q01DX009 (ip), vehicle: saline) 121 % of control; (dose: 25.0 mg/kg/injection, schedule: Q01DX009 (ip), vehicle: Klucel (hydroxypropylcellulose) (HPC)) 103 % of control; (dose: 25.0 mg/kg/injection, schedule: Q01DX009 (ip), vehicle: saline) 115 % of control; (dose: 50.0 mg/kg/injection, schedule: Q01DX009 (ip), vehicle: Klucel (hydroxypropylcellulose) (HPC)) 104 % of control. The T/C by setting is: (dose: 50.0 mg/kg/injection, schedule: Q01DX009 (ip), vehicle: saline) 118 % of control; (dose: 100.0 mg/kg/injection, schedule: Q01DX009 (ip), vehicle: Klucel (hydroxypropylcellulose) (HPC)) 97 % of control; under setting [1], 109 % of control; (dose: 200.0 mg/kg/injection, schedule: Q01DX009 (ip), vehicle: Klucel (hydroxypropylcellulose) (HPC)) 98 % of control; (dose: 400.0 mg/kg/injection, schedule: Q01DX009 (ip), vehicle: Klucel (hydroxypropylcellulose) (HPC)) 97 % of control.
As for `O=c1[nH]c(=O)c2cc(Cl)cc(Cl)c2[nH]1`, the T/C was 90 % of control (dose: 50.0 mg/kg/injection, schedule: Q01DX001 (ip), vehicle: saline with Tween-80); 90 % of control (dose: 100.0 mg/kg/injection, schedule: Q01DX001 (ip), vehicle: saline with Tween-80); 90 % of control (dose: 200.0 mg/kg/injection, schedule: Q01DX001 (ip), vehicle: saline with Tween-80).
As for `CCC(c1ccc(O)cc1)C(CC)c1ccc(OCCN)cc1` (stereo unspecified), the T/C is 111 % of control (dose: 30.0 mg/kg/injection, schedule: Q01DX005 (ip), vehicle: saline with Tween-80); 103 % of control and 121 % of control under setting [5]; 100 % of control under setting [6].
For `Clc1ccc(-c2cn3c(n2)SCC3)cc1`, the T/C was 121 % of control (dose: 100.0 mg/kg/injection, schedule: Q01DX001 (ip), vehicle: Klucel (hydroxypropylcellulose) (HPC)); 102 % of control (dose: 100.0 mg/kg/injection, schedule: Q04DX002 (ip), vehicle: Klucel (hydroxypropylcellulose) (HPC)); 88 % of control (dose: 200.0 mg/kg/injection, schedule: Q01DX001 (ip), vehicle: Klucel (hydroxypropylcellulose) (HPC)); 104 % of control (dose: 200.0 mg/kg/injection, schedule: Q04DX002 (ip), vehicle: Klucel (hydroxypropylcellulose) (HPC)); 106 % of control (dose: 400.0 mg/kg/injection, schedule: Q04DX002 (ip), vehicle: Klucel (hydroxypropylcellulose) (HPC)).
Consider `COC(=O)/C(C)=N/SC(c1ccccc1)(c1ccccc1)c1ccccc1`, for which the T/C is 102 % of control (dose: 50.0 mg/kg/injection, schedule: Q01DX005 (ip), vehicle: saline with Tween-80); 104 % of control (dose: 100.0 mg/kg/injection, schedule: Q01DX005 (ip), vehicle: saline with Tween-80); 98 % of control (dose: 200.0 mg/kg/injection, schedule: Q01DX005 (ip), vehicle: saline with Tween-80).
With `O=P(c1ccccc1)(c1ccccc1)c1ccccc1.O=P(c1ccccc1)(c1ccccc1)c1ccccc1.O=P(c1ccccc1)(c1ccccc1)c1ccccc1.O=P(c1ccccc1)(c1ccccc1)c1ccccc1.[Cr+3].[O-][Cl+3]([O-])([O-])O`, the T/C by setting is: (dose: 100.0 mg/kg/injection, schedule: Q04DX003 (ip), vehicle: saline + Tween-80 + alcohol) 101 % of control; (dose: 200.0 mg/kg/injection, schedule: Q04DX003 (ip), vehicle: saline + Tween-80 + alcohol) 100 % of control.
For the compound `CCO/C=C1/N=C(c2ccc(Cl)cc2)OC1=O`, the T/C under setting [5] was 121 % of control.
In the case of `C/C(=N\NC1=NCCN1)c1cn(C2=NCCN2)nc1C`, the T/C (dose: 15.0 mg/kg/injection, schedule: Q01DX005 (ip), vehicle: saline) is 99 % of control; the T/C (dose: 30.0 mg/kg/injection, schedule: Q01DX005 (ip), vehicle: saline) was 97 % of control; the T/C (dose: 60.0 mg/kg/injection, schedule: Q01DX005 (ip), vehicle: saline) is 102 % of control and 106 % of control.
Take `CSC1=CC(=NCc2ccccc2)CC(C)(C)S1`: the T/C is 110 % of control (dose: 15.0 mg/kg/injection, schedule: Q01DX005 (ip), vehicle: Klucel (hydroxypropylcellulose) (HPC)); 104 % of control under setting [7]; 101 % of control and 105 % of control under setting [8].
As to `CC1Cn2c(c(-c3ccccc3)c(=O)[nH]c2=S)O1` (stereo unspecified), the T/C is 100 % of control (dose: 50.0 mg/kg/injection, schedule: Q01DX009 (ip), vehicle: saline with Tween-80); 98 % of control (dose: 100.0 mg/kg/injection, schedule: Q01DX009 (ip), vehicle: saline with Tween-80); 91 % of control (dose: 200.0 mg/kg/injection, schedule: Q01DX009 (ip), vehicle: saline with Tween-80).
With `CN1CCN(C)C(N2CCOCC2)C(C)(C)C1` (stereo unspecified), the T/C is 93 % of control under setting [9], 94 % of control under setting [10] and 95 % of control under setting [11].
On to `CN(C)c1ccc2c(=O)cc[nH]c2c1`, for which the T/C under setting [9] was 96 % of control, the T/C under setting [10] is 100 % of control and the T/C under setting [11] was 100 % of control.
With `CN(C)c1ccc(C2OC3(CCCCC3)C[N+]23CCCC3)cc1` (stereo unspecified), the T/C is, setting by setting: (dose: 3.12 mg/kg/injection, schedule: Q01DX009 (ip), vehicle: saline with Tween-80) 100 % of control; (dose: 6.25 mg/kg/injection, schedule: Q01DX009 (ip), vehicle: saline with Tween-80) 104 % of control; (dose: 12.5 mg/kg/injection, schedule: Q01DX009 (ip), vehicle: saline with Tween-80) 86 % of control.
Consider `CCOC(=O)C1=C(C)NC(=O)NC1c1coc2cc(C)cc(C)c2c1=O` (stereo unspecified), for which the T/C was 86 % of control (dose: 12.5 mg/kg/injection, schedule: Q01DX005 (ip), vehicle: Klucel (hydroxypropylcellulose) (HPC)); 91 % of control (dose: 25.0 mg/kg/injection, schedule: Q01DX005 (ip), vehicle: Klucel (hydroxypropylcellulose) (HPC)); 98 % of control and 96 % of control under setting [4].
With `CCOC(=O)c1c[nH]c2ccc3c(nc(C)n3C)c2c1=O`, the T/C was 102 % of control and 91 % of control under setting [7]; 103 % of control and 110 % of control and 91 % of control under setting [8]; 112 % of control (2×) and 113 % of control (dose: 120.0 mg/kg/injection, schedule: Q01DX005 (ip), vehicle: Klucel (hydroxypropylcellulose) (HPC)); 115 % of control and 122 % of control and 123 % of control (dose: 240.0 mg/kg/injection, schedule: Q01DX005 (ip), vehicle: Klucel (hydroxypropylcellulose) (HPC)).
As to `O=C1C(Cl)=C(n2c3ccccc3c3ccccc32)C(=O)c2ccccc21`, the T/C is, setting by setting: (dose: 6.25 mg/kg/injection, schedule: Q01DX005 (ip), vehicle: saline with Tween-80) 108 % of control; (dose: 12.5 mg/kg/injection, schedule: Q01DX005 (ip), vehicle: saline with Tween-80) 104 % of control.
